From the kinase profiling compilation of Christmann-Franck et al. (2016)
One block for each compound: values may come before it.

Experiments:
Test in all cases: radiometric filter-binding kinase assay
YES1 (human) = YES1 (human) (UniProt P07947)
PRKCA (human) = PRKCA (human) (UniProt P17252)
IRAK4 (human) = IRAK4 (human) (UniProt Q9NWZ3)
MARK4 (human) = MARK4 (human) (UniProt Q96L34)
MAPK1 (human) = MAPK1 (human) (UniProt P28482)
SRPK1 (human) = SRPK1 (human) (UniProt Q96SB4)
INSR (human) = INSR (human) (UniProt P06213)
FLT1 (human) = FLT1 (human) (UniProt P17948)
MAPKAPK3 (human) = MAPKAPK3 (human) (UniProt Q16644)
CSNK2A1 (human) = CSNK2A1 (human) (UniProt P68400)
AURKA (human) = AURKA (human) (UniProt O14965)
[1] = tested on: RPS6KB1 (human), P23443 [T412E]
MAPK11 (human) = MAPK11 (human) (UniProt Q15759)
JAK2 JH1 JH2 (human) = JAK2 JH1 JH2 (human) (UniProt O60674)
HIPK2 (human) = HIPK2 (human) (UniProt Q9H2X6)
INSRR (human) = INSRR (human) (UniProt P14616)
RPS6KA1 KD1 KD2 (human) = RPS6KA1 KD1 KD2 (human) (UniProt Q15418)
MAPK15 (human) = MAPK15 (human) (UniProt Q8TD08)
NEK2 (human) = NEK2 (human) (UniProt P51955)
MKNK2 (human) = MKNK2 (human) (UniProt Q9HBH9)
CSNK1D (human) = CSNK1D (human) (UniProt P48730)
MAP3K1 (human) = MAP3K1 (human) (UniProt Q13233)
BTK (human) = BTK (human) (UniProt Q06187)
MARK3 (human) = MARK3 (human) (UniProt P27448)
RIPK2 (human) = RIPK2 (human) (UniProt O43353)
CLK2 (human) = CLK2 (human) (UniProt P49760)
[2] = tested on: AKT2 (human), P31751 [S474D]
RPS6KA5 KD1 KD2 (human) = RPS6KA5 KD1 KD2 (human) (UniProt O75582)
DYRK2 (human) = DYRK2 (human) (UniProt Q92630)
MAPK14 (human) = MAPK14 (human) (UniProt Q16539)
[3] = target: STK11 CAB39 STRADA (human) (UniProt Q9Y376+Q7RTN6+Q15831)
HIPK1 (human) = HIPK1 (human) (UniProt Q86Z02)
NEK6 (human) = NEK6 (human) (UniProt Q9HC98)
NTRK1 (human) = NTRK1 (human) (UniProt P04629)
MAP3K9 (human) = MAP3K9 (human) (UniProt P80192)

Sequence of SRPK1 (human) (Q96SB4 whole entry, looked up): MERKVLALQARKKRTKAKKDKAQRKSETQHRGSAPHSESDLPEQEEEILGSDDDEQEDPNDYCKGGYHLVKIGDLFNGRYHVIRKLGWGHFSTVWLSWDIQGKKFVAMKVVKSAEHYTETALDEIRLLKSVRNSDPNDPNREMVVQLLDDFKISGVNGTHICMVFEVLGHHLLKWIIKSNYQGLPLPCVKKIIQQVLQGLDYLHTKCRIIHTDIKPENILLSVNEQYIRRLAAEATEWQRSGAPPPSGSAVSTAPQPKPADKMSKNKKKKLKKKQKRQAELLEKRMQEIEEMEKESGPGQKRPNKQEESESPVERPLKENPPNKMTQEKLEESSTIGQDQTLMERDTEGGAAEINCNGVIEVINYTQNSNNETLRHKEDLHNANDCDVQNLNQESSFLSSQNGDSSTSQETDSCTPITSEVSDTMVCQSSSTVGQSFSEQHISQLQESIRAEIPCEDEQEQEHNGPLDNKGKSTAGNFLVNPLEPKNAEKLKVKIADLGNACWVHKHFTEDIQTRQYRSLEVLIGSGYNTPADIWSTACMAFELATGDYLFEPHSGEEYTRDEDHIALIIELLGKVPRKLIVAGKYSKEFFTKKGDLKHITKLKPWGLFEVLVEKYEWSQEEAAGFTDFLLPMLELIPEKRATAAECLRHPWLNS
Sequence of NTRK1 (human) (P04629 whole entry, looked up): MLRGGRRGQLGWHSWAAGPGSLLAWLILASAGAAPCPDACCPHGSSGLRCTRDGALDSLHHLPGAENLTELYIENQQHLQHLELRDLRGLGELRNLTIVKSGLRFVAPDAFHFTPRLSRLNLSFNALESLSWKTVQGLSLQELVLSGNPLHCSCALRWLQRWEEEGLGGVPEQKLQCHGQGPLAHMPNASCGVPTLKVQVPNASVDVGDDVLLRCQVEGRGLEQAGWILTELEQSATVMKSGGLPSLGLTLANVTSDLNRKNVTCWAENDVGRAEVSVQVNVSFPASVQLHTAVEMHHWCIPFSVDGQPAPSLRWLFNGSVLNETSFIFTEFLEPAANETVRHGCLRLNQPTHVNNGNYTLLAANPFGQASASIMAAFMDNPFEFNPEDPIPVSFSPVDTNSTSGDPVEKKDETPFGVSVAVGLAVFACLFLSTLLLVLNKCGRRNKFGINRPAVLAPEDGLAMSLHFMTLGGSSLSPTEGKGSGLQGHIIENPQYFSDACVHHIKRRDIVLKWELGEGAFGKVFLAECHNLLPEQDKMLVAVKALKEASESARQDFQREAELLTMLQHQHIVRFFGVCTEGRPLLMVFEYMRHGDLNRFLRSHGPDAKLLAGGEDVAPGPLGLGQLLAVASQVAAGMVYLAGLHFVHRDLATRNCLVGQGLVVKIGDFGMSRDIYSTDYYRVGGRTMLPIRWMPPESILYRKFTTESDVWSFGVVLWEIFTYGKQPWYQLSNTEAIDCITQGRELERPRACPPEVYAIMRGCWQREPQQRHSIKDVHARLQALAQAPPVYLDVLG
Sequence of MAPK15 (human) (Q8TD08 whole entry, looked up): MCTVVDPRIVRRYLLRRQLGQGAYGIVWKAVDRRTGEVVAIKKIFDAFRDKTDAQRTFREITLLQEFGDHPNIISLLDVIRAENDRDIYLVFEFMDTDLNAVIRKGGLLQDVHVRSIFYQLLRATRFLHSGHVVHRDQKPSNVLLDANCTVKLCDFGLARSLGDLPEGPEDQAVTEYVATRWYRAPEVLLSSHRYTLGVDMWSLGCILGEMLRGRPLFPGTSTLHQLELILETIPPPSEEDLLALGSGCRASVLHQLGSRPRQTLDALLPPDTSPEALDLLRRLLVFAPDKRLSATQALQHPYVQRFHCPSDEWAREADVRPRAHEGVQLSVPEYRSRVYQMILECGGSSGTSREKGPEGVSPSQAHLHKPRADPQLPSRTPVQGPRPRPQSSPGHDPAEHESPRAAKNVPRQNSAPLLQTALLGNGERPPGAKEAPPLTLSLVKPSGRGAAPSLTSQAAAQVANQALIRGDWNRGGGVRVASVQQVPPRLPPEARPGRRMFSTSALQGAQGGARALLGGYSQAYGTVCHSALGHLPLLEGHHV
Sequence of CLK2 (human) (P49760 whole entry, looked up): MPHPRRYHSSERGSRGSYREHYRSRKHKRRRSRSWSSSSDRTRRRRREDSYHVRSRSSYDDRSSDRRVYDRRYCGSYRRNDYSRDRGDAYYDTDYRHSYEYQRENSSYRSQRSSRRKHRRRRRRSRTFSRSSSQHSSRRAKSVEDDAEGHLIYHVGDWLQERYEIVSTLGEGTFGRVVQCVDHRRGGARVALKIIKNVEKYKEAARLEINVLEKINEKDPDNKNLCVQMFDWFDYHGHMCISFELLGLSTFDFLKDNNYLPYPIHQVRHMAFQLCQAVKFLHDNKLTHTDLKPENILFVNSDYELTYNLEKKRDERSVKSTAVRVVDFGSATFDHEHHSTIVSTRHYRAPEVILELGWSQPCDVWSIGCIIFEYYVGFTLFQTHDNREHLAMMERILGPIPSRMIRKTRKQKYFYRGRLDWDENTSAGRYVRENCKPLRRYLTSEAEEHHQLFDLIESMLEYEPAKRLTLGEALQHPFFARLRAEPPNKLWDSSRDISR
Sequence of MARK4 (human) (Q96L34 whole entry, looked up): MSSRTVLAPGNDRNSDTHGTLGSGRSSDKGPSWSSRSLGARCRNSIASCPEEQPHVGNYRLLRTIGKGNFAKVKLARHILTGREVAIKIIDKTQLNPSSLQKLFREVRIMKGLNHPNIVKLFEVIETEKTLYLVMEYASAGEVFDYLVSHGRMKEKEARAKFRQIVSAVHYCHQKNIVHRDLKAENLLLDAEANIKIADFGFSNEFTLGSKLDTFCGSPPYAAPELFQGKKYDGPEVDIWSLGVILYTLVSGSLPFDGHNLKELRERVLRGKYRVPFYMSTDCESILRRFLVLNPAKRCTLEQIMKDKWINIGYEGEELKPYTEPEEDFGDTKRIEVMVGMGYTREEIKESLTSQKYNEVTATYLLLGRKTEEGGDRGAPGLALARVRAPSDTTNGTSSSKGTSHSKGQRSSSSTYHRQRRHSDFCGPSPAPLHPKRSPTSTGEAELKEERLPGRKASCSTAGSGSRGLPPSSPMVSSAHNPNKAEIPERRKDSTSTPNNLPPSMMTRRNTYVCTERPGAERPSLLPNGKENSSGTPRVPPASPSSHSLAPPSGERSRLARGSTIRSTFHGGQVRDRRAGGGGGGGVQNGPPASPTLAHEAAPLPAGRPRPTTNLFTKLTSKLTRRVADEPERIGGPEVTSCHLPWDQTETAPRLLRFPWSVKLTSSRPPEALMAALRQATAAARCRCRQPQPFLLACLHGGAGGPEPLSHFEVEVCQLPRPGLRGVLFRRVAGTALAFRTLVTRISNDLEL
Sequence of NEK2 (human) (P51955 whole entry, looked up): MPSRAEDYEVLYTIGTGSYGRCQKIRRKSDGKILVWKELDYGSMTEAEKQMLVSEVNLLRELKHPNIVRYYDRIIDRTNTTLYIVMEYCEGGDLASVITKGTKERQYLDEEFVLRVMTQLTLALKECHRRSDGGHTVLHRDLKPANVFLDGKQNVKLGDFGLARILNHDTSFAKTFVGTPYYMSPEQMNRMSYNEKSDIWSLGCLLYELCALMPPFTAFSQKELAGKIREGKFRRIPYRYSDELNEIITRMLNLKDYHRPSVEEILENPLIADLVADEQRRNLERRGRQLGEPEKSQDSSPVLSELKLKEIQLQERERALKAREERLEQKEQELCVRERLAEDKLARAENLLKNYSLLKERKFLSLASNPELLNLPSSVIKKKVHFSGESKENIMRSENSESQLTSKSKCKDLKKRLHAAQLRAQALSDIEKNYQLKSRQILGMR
Sequence of RPS6KB1 (human), P23443 [T412E] (P23443 whole entry T412E, looked up): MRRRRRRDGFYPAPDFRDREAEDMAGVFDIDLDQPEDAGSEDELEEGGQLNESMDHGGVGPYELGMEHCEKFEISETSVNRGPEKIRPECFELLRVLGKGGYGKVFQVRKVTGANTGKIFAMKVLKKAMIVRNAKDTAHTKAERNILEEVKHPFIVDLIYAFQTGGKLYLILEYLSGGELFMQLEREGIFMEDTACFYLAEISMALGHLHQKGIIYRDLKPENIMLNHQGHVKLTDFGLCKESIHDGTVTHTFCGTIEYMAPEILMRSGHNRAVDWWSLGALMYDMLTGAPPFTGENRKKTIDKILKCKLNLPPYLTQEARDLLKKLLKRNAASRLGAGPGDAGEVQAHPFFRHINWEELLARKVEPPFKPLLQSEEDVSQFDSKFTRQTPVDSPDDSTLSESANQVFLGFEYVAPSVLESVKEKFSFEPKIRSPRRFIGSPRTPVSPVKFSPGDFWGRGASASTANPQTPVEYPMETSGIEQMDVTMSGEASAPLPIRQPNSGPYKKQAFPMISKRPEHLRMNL
Sequence of MAPK11 (human) (Q15759 whole entry, looked up): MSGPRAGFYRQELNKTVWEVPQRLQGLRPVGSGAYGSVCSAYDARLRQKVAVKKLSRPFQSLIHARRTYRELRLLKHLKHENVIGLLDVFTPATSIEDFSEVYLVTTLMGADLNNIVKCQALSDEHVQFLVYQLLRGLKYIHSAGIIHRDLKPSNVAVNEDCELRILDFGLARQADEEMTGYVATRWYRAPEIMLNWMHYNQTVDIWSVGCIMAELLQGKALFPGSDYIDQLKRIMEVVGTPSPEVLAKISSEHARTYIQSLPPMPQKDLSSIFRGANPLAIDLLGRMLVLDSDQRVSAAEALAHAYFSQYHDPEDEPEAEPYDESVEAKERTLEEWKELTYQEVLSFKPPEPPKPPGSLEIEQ
Sequence of CSNK1D (human) (P48730 whole entry, looked up): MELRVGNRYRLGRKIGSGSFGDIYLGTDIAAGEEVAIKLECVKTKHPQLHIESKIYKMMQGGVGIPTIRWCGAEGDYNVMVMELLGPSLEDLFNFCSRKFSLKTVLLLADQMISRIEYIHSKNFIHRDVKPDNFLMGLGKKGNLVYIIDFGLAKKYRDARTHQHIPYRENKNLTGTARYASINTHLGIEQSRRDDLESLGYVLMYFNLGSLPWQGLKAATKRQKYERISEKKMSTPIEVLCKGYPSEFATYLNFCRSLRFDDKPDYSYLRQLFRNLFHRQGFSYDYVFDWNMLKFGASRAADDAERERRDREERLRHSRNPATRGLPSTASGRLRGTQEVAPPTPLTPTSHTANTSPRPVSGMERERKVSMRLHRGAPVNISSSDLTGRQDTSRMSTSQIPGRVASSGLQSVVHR

residual activity (YES1 (human); compound 1.0 µM): 104% | residual activity (YES1 (human); compound 10.0 µM): 104% | residual activity (PRKCA (human); compound 1.0 µM): 95% | residual activity (PRKCA (human); compound 10.0 µM): 97% | residual activity (IRAK4 (human); compound 1.0 µM): 103% | residual activity (IRAK4 (human); compound 10.0 µM): 83% | residual activity (MARK4 (human); compound 1.0 µM): 91% | residual activity (MARK4 (human); compound 10.0 µM): 67% | residual activity (MAPK1 (human); compound 1.0 µM): 99% | residual activity (MAPK1 (human); compound 10.0 µM): 71% | residual activity (SRPK1 (human); compound 1.0 µM): 79% | residual activity (SRPK1 (human); compound 10.0 µM): 68% | residual activity (INSR (human); compound 1.0 µM): 19% | residual activity (INSR (human); compound 10.0 µM): 2% | residual activity (FLT1 (human); compound 1.0 µM): 62% | residual activity (FLT1 (human); compound 10.0 µM): 13% | residual activity (MAPKAPK3 (human); compound 1.0 µM): 91% | residual activity (MAPKAPK3 (human); compound 10.0 µM): 108% | residual activity (CSNK2A1 (human); compound 1.0 µM): 95% | residual activity (CSNK2A1 (human); compound 10.0 µM): 82% | residual activity (AURKA (human); compound 1.0 µM): 97% | residual activity (AURKA (human); compound 10.0 µM): 55% | residual activity ([1]; compound 1.0 µM): 89% | residual activity ([1]; compound 10.0 µM): 60% | residual activity (MAPK11 (human); compound 1.0 µM): 98% | residual activity (MAPK11 (human); compound 10.0 µM): 91% | residual activity (JAK2 JH1 JH2 (human); compound 1.0 µM): 72% | residual activity (JAK2 JH1 JH2 (human); compound 10.0 µM): 35% | residual activity (HIPK2 (human); compound 1.0 µM): 88% | residual activity (HIPK2 (human); compound 10.0 µM): 65% | residual activity (INSRR (human); compound 1.0 µM): 90% | residual activity (INSRR (human); compound 10.0 µM): 67% | residual activity (RPS6KA1 KD1 KD2 (human); compound 1.0 µM): 21% | residual activity (RPS6KA1 KD1 KD2 (human); compound 10.0 µM): 8% | residual activity (NEK2 (human); compound 1.0 µM): 99% | residual activity (NEK2 (human); compound 10.0 µM): 92% | residual activity (MKNK2 (human); compound 1.0 µM): 62% | residual activity (MKNK2 (human); compound 10.0 µM): 23% | residual activity (CSNK1D (human); compound 1.0 µM): 98% | residual activity (CSNK1D (human); compound 10.0 µM): 81% | residual activity (MAP3K1 (human); compound 1.0 µM): 104% | residual activity (MAP3K1 (human); compound 10.0 µM): 99% | residual activity (BTK (human); compound 1.0 µM): 131% | residual activity (BTK (human); compound 10.0 µM): 90% | residual activity (MARK3 (human); compound 1.0 µM): 80% | residual activity (MARK3 (human); compound 10.0 µM): 41% | residual activity (RIPK2 (human); compound 1.0 µM): 86% | residual activity (RIPK2 (human); compound 10.0 µM): 74% | residual activity (CLK2 (human); compound 1.0 µM): 50% | residual activity (CLK2 (human); compound 10.0 µM): 9% | residual activity ([2]; compound 1.0 µM): 92% | residual activity ([2]; compound 10.0 µM): 95% | residual activity (RPS6KA5 KD1 KD2 (human); compound 1.0 µM): 91% | residual activity (RPS6KA5 KD1 KD2 (human); compound 10.0 µM): 49% | residual activity (DYRK2 (human); compound 1.0 µM): 50% | residual activity (DYRK2 (human); compound 10.0 µM): 17% | residual activity (MAPK14 (human); compound 1.0 µM): 89% | residual activity (MAPK14 (human); compound 10.0 µM): 101% | residual activity ([3]; compound 1.0 µM): 89% | residual activity ([3]; compound 10.0 µM): 86% | residual activity (HIPK1 (human); compound 1.0 µM): 78% | residual activity (HIPK1 (human); compound 10.0 µM): 35% | residual activity (NEK6 (human); compound 1.0 µM): 103% | residual activity (NEK6 (human); compound 10.0 µM): 84% | residual activity (NTRK1 (human); compound 1.0 µM): 81% | residual activity (NTRK1 (human); compound 10.0 µM): 63% | residual activity (MAP3K9 (human); compound 1.0 µM): 25% | residual activity (MAP3K9 (human); compound 10.0 µM): 3%
Structure (SMILES): CCNc1nc(Nc2cc(F)c(C(=O)N3CCOCC3)cc2OC)ncc1C(F)(F)F
residual activity (MAPK15 (human); compound 1.0 µM): 96% | residual activity (MAPK15 (human); compound 10.0 µM): 78%

residual activity (YES1 (human); compound 1.0 µM): 79% | residual activity (YES1 (human); compound 10.0 µM): 38% | residual activity (PRKCA (human); compound 1.0 µM): 117% | residual activity (PRKCA (human); compound 10.0 µM): 55% | residual activity (IRAK4 (human); compound 1.0 µM): 124% | residual activity (IRAK4 (human); compound 10.0 µM): 70% | residual activity (MARK4 (human); compound 1.0 µM): 115% | residual activity (MARK4 (human); compound 10.0 µM): 102% | residual activity (MAPK1 (human); compound 1.0 µM): 101% | residual activity (MAPK1 (human); compound 10.0 µM): 76% | residual activity (SRPK1 (human); compound 1.0 µM): 92% | residual activity (SRPK1 (human); compound 10.0 µM): 101% | residual activity (INSR (human); compound 1.0 µM): 51% | residual activity (INSR (human); compound 10.0 µM): 33% | residual activity (FLT1 (human); compound 1.0 µM): 101% | residual activity (FLT1 (human); compound 10.0 µM): 53% | residual activity (MAPKAPK3 (human); compound 1.0 µM): 87% | residual activity (MAPKAPK3 (human); compound 10.0 µM): 85% | residual activity (CSNK2A1 (human); compound 1.0 µM): 91% | residual activity (CSNK2A1 (human); compound 10.0 µM): 93% | residual activity (AURKA (human); compound 1.0 µM): 111% | residual activity (AURKA (human); compound 10.0 µM): 91% | residual activity ([1]; compound 1.0 µM): 88% | residual activity ([1]; compound 10.0 µM): 53% | residual activity (MAPK11 (human); compound 1.0 µM): 88% | residual activity (MAPK11 (human); compound 10.0 µM): 71% | residual activity (JAK2 JH1 JH2 (human); compound 1.0 µM): 27% | residual activity (JAK2 JH1 JH2 (human); compound 10.0 µM): 4% | residual activity (HIPK2 (human); compound 1.0 µM): 80% | residual activity (HIPK2 (human); compound 10.0 µM): 59% | residual activity (INSRR (human); compound 1.0 µM): 117% | residual activity (INSRR (human); compound 10.0 µM): 61% | residual activity (RPS6KA1 KD1 KD2 (human); compound 1.0 µM): 45% | residual activity (RPS6KA1 KD1 KD2 (human); compound 10.0 µM): 6% | residual activity (NEK2 (human); compound 1.0 µM): 85% | residual activity (NEK2 (human); compound 10.0 µM): 94% | residual activity (MKNK2 (human); compound 1.0 µM): 113% | residual activity (MKNK2 (human); compound 10.0 µM): 89% | residual activity (CSNK1D (human); compound 1.0 µM): 86% | residual activity (CSNK1D (human); compound 10.0 µM): 78% | residual activity (MAP3K1 (human); compound 1.0 µM): 62% | residual activity (MAP3K1 (human); compound 10.0 µM): 50% | residual activity (BTK (human); compound 1.0 µM): 122% | residual activity (BTK (human); compound 10.0 µM): 58% | residual activity (MARK3 (human); compound 1.0 µM): 118% | residual activity (MARK3 (human); compound 10.0 µM): 82% | residual activity (RIPK2 (human); compound 1.0 µM): 80% | residual activity (RIPK2 (human); compound 10.0 µM): 57% | residual activity (CLK2 (human); compound 1.0 µM): 43% | residual activity (CLK2 (human); compound 10.0 µM): 7% | residual activity ([2]; compound 1.0 µM): 85% | residual activity ([2]; compound 10.0 µM): 62% | residual activity (RPS6KA5 KD1 KD2 (human); compound 1.0 µM): 105% | residual activity (RPS6KA5 KD1 KD2 (human); compound 10.0 µM): 55% | residual activity (DYRK2 (human); compound 1.0 µM): 91% | residual activity (DYRK2 (human); compound 10.0 µM): 91% | residual activity (MAPK14 (human); compound 1.0 µM): 102% | residual activity (MAPK14 (human); compound 10.0 µM): 91% | residual activity ([3]; compound 1.0 µM): 78% | residual activity ([3]; compound 10.0 µM): 65% | residual activity (HIPK1 (human); compound 1.0 µM): 113% | residual activity (HIPK1 (human); compound 10.0 µM): 62% | residual activity (NEK6 (human); compound 1.0 µM): 99% | residual activity (NEK6 (human); compound 10.0 µM): 101% | residual activity (NTRK1 (human); compound 1.0 µM): 68% | residual activity (NTRK1 (human); compound 10.0 µM): 20% | residual activity (MAP3K9 (human); compound 1.0 µM): 73% | residual activity (MAP3K9 (human); compound 10.0 µM): 66%
Structure (SMILES): N#Cc1c(C2CCNCC2)cc(-c2c(O)cccc2OCC2CC2)nc1N
residual activity (MAPK15 (human); compound 1.0 µM): 59% | residual activity (MAPK15 (human); compound 10.0 µM): 9%
